Measurements from ChEMBL document CHEMBL5143554, “Discovery of phenylpyrrolidine derivatives as a novel class of retinol binding protein 4 (RBP4) reducers” (Bioorg Med Chem, 2022).

Experiments:
[1] = Inhibition of His-tagged human RBP4- biotin immobilized TTR (unknown origin) protein-protein interaction in presence of retinol by ELISA
[2] = Inhibition of His-tagged mouse RBP4- biotin immobilized TTR (unknown origin) protein-protein interaction in presence of retinol by ELISA
[3] = Reduction in blood RBP4 level in C57BL/6J mouse assessed as RBP4 leve in blood at 10 mg/kg, po after 7 hrs by ELISA (reference value: 100%); assay type: functional; design: scale not given: the % may be the effect or the level left
[4] = Reduction in blood RBP4 level in C57BL/6J mouse assessed as RBP4 leve in blood at 10 mg/kg, po after 24 hrs by ELISA (reference value: 100%); assay type: functional; design: scale not given: the % may be the effect or the level left
[5] = Oral bioavilability in ICR mouse at 1 mg/kg; assay type: ADME, organism-based; details: in vivo
[6] = Reduction in blood RBP4 level in C57BL/6J mouse assessed as RBP4 leve in blood at 10 mg/kg, po after 4 hrs by ELISA (reference value: 100%); assay type: functional; design: scale not given: the % may be the effect or the level left
[7] = Cmax in ICR mouse at 1 mg/kg, po; assay type: ADME, organism-based; design: dose 1 mg/kg, route po; details: in vivo
[8] = AUC in ICR mouse at 1 mg/kg, po; assay type: ADME, organism-based; design: dose 1 mg/kg, route po; details: in vivo
[9] = Reduction in blood RBP4 level in C57BL/6J mouse assessed as RBP4 leve in blood at 0.3 mg/kg, po after 4 hrs by ELISA (reference value: 100 +/- 3.9%); assay type: functional; design: scale not given: the % may be the effect or the level left
[10] = Reduction in blood RBP4 level in C57BL/6J mouse assessed as RBP4 leve in blood at 1 mg/kg, po after 4 hrs by ELISA (reference value: 100 +/- 9.8%); assay type: functional; design: scale not given: the % may be the effect or the level left
[11] = Reduction in blood RBP4 level in C57BL/6J mouse assessed as RBP4 leve in blood at 3 mg/kg, po after 4 hrs by ELISA (reference value: 100 +/- 12%); assay type: functional; design: scale not given: the % may be the effect or the level left
[12] = Reduction in blood RBP4 level in C57BL/6J mouse assessed as RBP4 leve in blood at 0.3 mg/kg, po after 24 hrs by ELISA (reference value: 100 +/- 3.9%); assay type: functional; design: scale not given: the % may be the effect or the level left
[13] = Reduction in blood RBP4 level in C57BL/6J mouse assessed as RBP4 leve in blood at 3 mg/kg, po after 24 hrs by ELISA (reference value: 100 +/- 12%); assay type: functional; design: scale not given: the % may be the effect or the level left
[14] = Reduction in blood RBP4 level in C57BL/6J mouse assessed as RBP4 leve in blood at 3 mg/kg, po after 7 hrs by ELISA (reference value: 100 +/- 12%); assay type: functional; design: scale not given: the % may be the effect or the level left
[15] = Reduction in blood RBP4 level in C57BL/6J mouse assessed as RBP4 leve in blood at 1 mg/kg, po after 24 hrs by ELISA (reference value: 100 +/- 9.8%); assay type: functional; design: scale not given: the % may be the effect or the level left
[16] = Reduction in blood RBP4 level in C57BL/6J mouse assessed as RBP4 leve in blood at 0.3 mg/kg, po after 7 hrs by ELISA (reference value: 100 +/- 3.9%); assay type: functional; design: scale not given: the % may be the effect or the level left
[17] = test system: Mus musculus; test: Reduction in blood RBP4 level in C57BL/6J mouse assessed as RBP4 leve in blood at 0.3 to 10 mg/kg, po after 4 to 24 hrs hrs by ELISA (reference value: 100%); assay type: functional, organism-based; details: dose 0.3-10 mg/kg, time 4-24 hrs, DDE = dose-dependent effect
[18] = Reduction in blood RBP4 level in C57BL/6J mouse assessed as RBP4 leve in blood at 1 mg/kg, po after 7 hrs by ELISA (reference value: 100 +/- 9.8%); assay type: functional; design: scale not given: the % may be the effect or the level left

Row | SMILES | IC50 [1] [nM] | IC50 [2] [nM] | other results
1 | O=C(O)CCC1CCN(c2cc(C(F)(F)F)cc(C(F)(F)F)c2)CC1 | 270 | 3800 | 
2 | O=C(O)CCC1CN(c2cc(C(F)(F)F)cc(C(F)(F)F)c2)C1 | 40 | 740 | 
3 | O=C(O)CCC1CCN(c2cc(C(F)(F)F)cc(C(F)(F)F)c2)C1 (racemic) | 51 | 220 | 
4 | O=C(O)CCc1ncc(-c2cc(C(F)(F)F)cc(C(F)(F)F)c2)o1 | 130 | 1200 | 
5 | O=C(O)C1CCN(c2cc(C(F)(F)F)cc(C(F)(F)F)c2)C1 (racemic) | 1000 | 5900 | 
6 | O=C(O)CC1CCN(c2cc(C(F)(F)F)cc(C(F)(F)F)c2)C1 (racemic) | 42 | 300 | 
7 | O=C(O)CCc1nc(-c2cc(C(F)(F)F)cc(C(F)(F)F)c2)co1 | 24 | 420 | 
8 | O=C(O)CCc1cnc(-c2cc(C(F)(F)F)cc(C(F)(F)F)c2)o1 | 6000 | > 30000 | 
9 | FC(F)(F)c1cc(N2CCC(OCc3nnn[nH]3)C2)cc(C(F)(F)F)c1 (racemic) | 48 | 270 | 

Further lines, with some results ahead:

Row | IC50 [1] [nM] | IC50 [2] [nM] | SMILES | other results
10 | 21 | 130 | O=C(O)CO[C@@H]1CCN(c2cc(C(F)(F)F)cc(C(F)(F)F)c2)C1 | Activity [3]: 40.5%; Activity [4]: 38.6%; bioavailability [5]: 51%; Activity [6]: 42.2%; Cmax [7]: 2920 ng/mL; AUC [8]: 17900 ng·h/mL
11 | 28 | 110 | O=C(O)CO[C@H]1CCN(c2cc(C(F)(F)F)cc(C(F)(F)F)c2)C1 | Activity [9]: 64.6%; Activity [10]: 51.6%; Activity [3]: 39.6%; Activity [11]: 50.4%; Activity [12]: 75%; Activity [4]: 37.5%; bioavailability [5]: 58%; Activity [6]: 39.5%; Activity [13]: 43.6%; Activity [14]: 41.5%; Cmax [7]: 2910 ng/mL; Activity [15]: 53%; Activity [16]: 56.6%; Activity [17]: Dde; AUC [8]: 22000 ng·h/mL; Activity [18]: 42.4%
12 | 190 | 1200 | O=C(O)COC1CCN(c2cc(F)cc(C(F)(F)F)c2)C1 (racemic) | 
13 | 520 | 2400 | O=C(O)COC1CCN(c2cccc(C(F)(F)F)c2)C1 (racemic) | 
14 | 230 | 1600 | O=C(O)COC1CCN(c2ccc(F)c(C(F)(F)F)c2)C1 (racemic) | 
15 | 82 | 870 | COc1cc(N2CCC(OCC(=O)O)C2)cc(C(F)(F)F)c1 (racemic) | 
16 | 150 | 200 | COC(=O)CO[C@H]1CCN(c2cc(C(F)(F)F)cc(C(F)(F)F)c2)C1 | 
17 | 16 | 100 | O=C(O)COC1CCN(c2cc(C(F)(F)F)cc(C(F)(F)F)c2)C1 (racemic) | 
18 | 240 | 1500 | O=C(O)COC1CCN(c2cccc(C(F)(F)F)c2F)C1 (racemic) | 
19 | 96 | 420 | O=C(O)COC1CCN(c2cc(Cl)cc(C(F)(F)F)c2)C1 (racemic) | 
